Experimental data published in patent US8158623B2, “Heptacyclic compounds and the pharmaceutical uses thereof for preventing and treating diabetes and metabolic syndrome” (Shanghai Institute of Materia Medica Chinese Academy of …, priority 2007, dated 2012).
“And” between values parts separate entries of the source, which are not always exact repeats. Equal entries are not always repeated.

Tests used:
[1] = system: diet-induced obese (DIO) mice; assay: Effect of F7 on body weight of diet-induced obese mice; assay type: in vivo, C57BL/6J mice; details: for Body weight: oral 50 mg/kg daily; for Body weight reduction compared with the model control group: oral 50 mg/kg
Protocol: Male C57BL/6J mice were maintained a SPF facility (temperature: 22-24° C., humidity: 45-80%, illumination: 150-300 Lx, 12/12-hour light/dark cycle). When the mice were 4 weeks old, they were fed with a high-fat diet (purchased from Research Diets Inc. (USA), D12492i, fat content is 60%). After 12 weeks, diet-induced obese (DIO) mice model was established. Another group of mice fed with normal diet (D12450Bi, fat content is 10%) was used as a normal control group. The DIO mice were divided into two group according to body weights, and administrated orally F7 (50 mg/kg) or 0.1% Tween80 (the model control group) respectively, every afternoon just before black out for 5 weeks. The body weights of mice were measured daily, and the effect of Compound F7 on body weight was observed.

[2] = system: ob/ob mice; assay: Hypoglycemic effect of compound F7, fasting blood glucose, 3 weeks; assay type: in vivo; details: oral 50 mg/kg once daily
Protocol: (§1) Genetic spontaneous diabetes ob/ob mice were purchased from Jackson (USA), and maintained in a SPF facility (temperature: 22-24° C., humidity: 45-80%, illumination: 150-300 Lx, 12/12-hour light/dark cycle). Fasting blood glucose was determined for 3 days continuously when the mice were 7 weeks old. The mice were grouped into the treatment group and the control group (8 animals per group) according to the results determined. The two groups were administered orally with compound F7 (50 mg/kg) and a solution of 0.1% Tween 80 respectively, once daily for 3 weeks. Fasting Blood Glucose levels of mice were measured regularly.

[3] = system: ob/ob mice; assay: Fasting blood glucose in ob/ob mice, several heptacyclic compounds, 8 days; assay type: in vivo
Protocol: Genetic spontaneous diabetes ob/ob mice were purchased from Jackson (USA), and maintained in a SPF facility (temperature: 22-24° C., humidity: 45-80%, illumination: 150-300 Lx, 12/12-hour light/dark cycle). Fasting blood glucose was determined for 3 days continuously when the mice were 7 weeks old. The mice were grouped into the treatment group and the control group (6 animals per group) according to the results determined. The treatment groups were administered orally with compound E9, G0 and F7 (psoromic acid) (100 mg/kg), and the control group was administered orally with a solution of 0.1% Tween 80 (blank control), once daily for 8 days. Fasting blood glucose in mice was determined at the end of experiment.

[4] = Properties of psoromic acid (solubility, acidity, stability); assay type: physicochemical
Protocol: As a preferred embodiment of the present invention, the compound of the present invention is psoromic acid, F7, a white needle crystal, which is odorless, faintly bitter, with melting point of 265-266° C.

[5] = system: 3T3-L1 adipocytes; assay: Glucose uptake in 3T3-L1 adipocytes (3H-labelled 2-deoxyglucose); assay type: cell-based
Procedure, shortened: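 Differentiated 3T3-L1 adipocytes treated with compound at 10 μM for 2 h, with or without insulin. Baseline and insulin-stimulated uptake measured as intracellular 3H-labelled 2-deoxyglucose; increase calculated relative to 0.1% DMSO control.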

[6] = system: ob/ob mice; assay: Effect of F7 on liver weight, liver triglyceride, ALT and AST; assay type: in vivo; details: oral 50 mg/kg once daily for 3 weeks
Protocol: as §1, with “When” for “Fasting blood glucose was determined for 3 days continuously when”, “old, the ob/ob” for “old. The”, “(9” for “(8”, “fasting blood glucose.” for “results determined.”, “After 3 weeks, the animals” for “Fasting Blood Glucose levels of mice”, “sacrificed and the liver was excised and weighed.” for “measured regularly.”
The triglyceride level in the liver was measured.

## COc1cc(C(=O)O)c2c(c1C)OC(=O)c1c(C)cc(O)c(C=O)c1O2 [Compound F7, 4-Formyl-3-hydroxy-8-methoxy-1,9-dimethyl-11-oxo-11H-dibenzo[b,e][1,4]dioxepine-6-carboxylic acid]
[1]; 0 day
  Body weight: 39.2 ± 3.8 g
[1]; 7 day
  Body weight: 36.4 ± 3.8 g
[1]; 14 day
  Body weight: 36.5 ± 4.2 g
[1]; 21 day
  Body weight: 36.2 ± 3.9 g
[1]; 28 day
  Body weight: 36.1 ± 2.6 g
[1]; 35 day
  Body weight: 35.8 ± 2.0 g
[1]; 1 week after administration
  Body weight reduction compared with the model control group: 2 g
[1]; 5 weeks after administration
  Body weight reduction compared with the model control group: 4.5 g
[2]; 0 day
  Fasting Blood Glucose: 14.0 ± 1.8 mM
[2]; 4 day
  Fasting Blood Glucose: 11.3 ± 2.5 mM
[2]; 8 day
  Fasting Blood Glucose: 11.1 ± 2.0 mM
[2]; 11 day
  Fasting Blood Glucose: 8.8 ± 1.5 mM
[2]; 15 day
  Fasting Blood Glucose: 8.5 ± 2.5 mM
[2]; 21 day, 50 mg/kg
  Fasting Blood Glucose: 7.4 mM and 7.4 ± 1.3 mM
[2]; day 15 after administration
  Reduction of fasting blood glucose: 42%
[3]; before administration
  Fasting Blood Glucose: 11.94 ± 1.50 mM
[3]; dosed continuously for 8 days, P<0.05
  Fasting blood glucose change in words: reduced statistically significant
[3]; oral 100 mg/kg once daily, after 8 days treatment
  Fasting Blood Glucose: 8.12 ± 1.04 mM
[4]; DMSO, ethanol, acetone and ethyl acetate
  Solubility in organic solvents: soluble in organic solvents
[4]; in water
  pH (acidic): 3-4
[4]; room temperature
  Stability: stable at room temperature
[4]; water
  Solubility in water: slightly soluble in water
[5]; 10 μM, 2 h incubation, with insulin, relative to control without insulin
  Glucose uptake, Mean, Compound + Insulin Group (Control Group = 1.000): 3.788
[5]; Mus musculus, 3T3-L1, 2 h incubation, baseline (without insulin), relative to control, read-out: Glucose uptake, Mean, Compound Group (Control Group = 1.000)
  fold induction at 10 µM: 1.19
[6]
  Liver TG: 106.9 ± 35.6 µmol/g
  Liver Weight: 2.67 ± 0.57 g
  Weight of other organs or its ratio to body weight: no effect
[6]; serum
  ALT: 161.5 ± 28.4 U/L
  AST: 197.3 ± 24.6 U/L
